Laboratory results: US4806566A, “Anti-gram positive bacteria tri-yne carbonates” (Merck & Co., Inc., priority 1987, dated 1989)
In brackets after ≈: the same amount, converted by molar mass.

Columns and labels:
[1] = Stability of the free acid to concentration; format: physicochemical; conditions: on concentration of solutions
Procedure: (d) Due to the instability of the free acid of the compound of formula I to concentration, an alternate method was used to provide concentrated solutions. LH20 fractions 13-25 from Step C, 3250 ml, was extracted with 500 ml of 0.1M potassium phosphate buffer pH 7.2. The compound was extracted into the aqueous layer, 620 ml, which was reextracted with 200 ml of methylene chloride at pH 4.5. The methylene chloride extract was dried over anhydrous sodium sulfate. The extraction volumes could be adjusted to provide varying concentrations of the free acid of the compound of formula I in methylene chloride.

S. arueus = test: Minimum inhibitory concentration, agar dilution, S. aureus; format: cell-based; conditions: Staphylococcus aureus, 24 h
Procedure: (§1) The free acid of the compound of formula I was prepared as aqueous solutions at a concentration of 1.28 mg/ml. Comparative agents vancomycin and streptomycin were prepared at 1.28 mg/ml in Sorensens' buffer, pH 7.
(§2) Each of the drugs was serially diluted twofold in 20×100 mm sterile petri dishes with the aid of a Pipetman. To each plate containing 1 ml of the antibiotic dilution was added 9 ml molten trypticase soy agar (TSA) (BBL) to yield final drug concentrations ranging from 128-0.031 mcg/ml. Plates were swirled to mix, allowed to solidify at room temperature and were stored overnight at 5° C.
(§3) Cultures were grown in trypticase soy broth (TSB) for 16 hours at 35° C. They were diluted 1-100 in TSB to obtain an inoculum of 10^4 cfu/spot when plated using a Denley multipoint inoculator calibrated to deliver 0.0015 ml. Inoculated plates were incubated for 24 hours at 35° C.
(§4) The minimum inhibitory concentration (MIC) was defined as the lowest concentration that allowed no growth or a barely visible haze.

[2] = tested on: Staphyloccoccus aureus methicillin-resistant (S. aureus Meth-R); test: Minimum inhibitory concentration, agar dilution, methicillin-resistant Staphylococcus aureus; format: cell-based; conditions: one isolate per line, 10^4 cfu/spot, trypticase soy agar, 24 hours at 35° C.
Procedure: as §1, §2, §3, §4

Streptococcus faecalis = test: Minimum inhibitory concentration, agar dilution, Streptococcus faecalis; format: cell-based; conditions: Enterococcus faecalis, 24 h, one isolate per line, 10^4 cfu/spot, trypticase soy agar, 24 hours at 35° C.
Procedure: as §1, §2, §3, §4

| Structure (SMILES) | instability of the free acid to concentration [1] | MIC (S. arueus) [µg/mL] | MIC [2] [µg/mL] | MIC (Streptococcus faecalis) [µg/mL] |
| --- | --- | --- | --- | --- |
| C#CC#CC#CC(O)C1OC(=O)OC1CCCCCCC(=O)O (stereo not drawn) [Free Acid of the Compound of Formula I, 5-(1-hydroxy-2,4,6-heptatriynyl)-2-oxo-1,3 dioxolane] | instability | 1 | 0.5 | – |
| [H]/N=C(/N)N[C@H]1[C@H](O)[C@@H](O)[C@H](O[C@@H]2O[C@@H](C)[C@](O)(C=O)[C@H]2O[C@@H]2O[C@@H](CO)[C@H](O)[C@@H](O)[C@@H]2NC)[C@@H](N/C(N)=N\[H])[C@@H]1O [Streptomycin] | – | 116 (≈ 199 µM) | – | > 128 |
| CN[C@H](CC(C)C)C(=O)N[C@H]1C(=O)N[C@@H](CC(N)=O)C(=O)N[C@H]2C(=O)N[C@H]3C(=O)N[C@H](C(=O)N[C@H](C(=O)O)c4cc(O)cc(O)c4-c4cc3ccc4O)[C@H](O)c3ccc(c(Cl)c3)Oc3cc2cc(c3O[C@@H]2O[C@H](CO)[C@@H](O)[C@H](O)[C@H]2O[C@H]2C[C@](C)(N)[C@H](O)[C@H](C)O2)Oc2ccc(cc2Cl)[C@H]1O [Vancomycin] | – | – | – | 4 (≈ 2.76 µM) |
